Test results from the NIST ThermoML archive (doi:10.1016/j.jct.2018.11.004).
Values joined by “and” are separate entries in the source; they are usually repeats but may differ in a detail not shown here. Identical values can stand only once. Numbers after ± are expanded uncertainties.

Columns and labels:
[1] = for Triple point temperature: DSC
[2] = Molar enthalpy of transition or fusion; conditions: DSC
[3] = molar heat capacity at constant pressure; conditions: 100 kPa, Extra sensitive DSC

CC(C)[C@@H]1CC[C@@H](C)C[C@H]1O (racemic) [DL-menthol]
Conditions	molar heat capacity at constant pressure [J/K/mol]	vapor or sublimation pressure
[1], 273.65 K, Crystal 1	–	0.000259 ± 0.00011 kPa
[1], 273.66 K, Crystal 1	–	0.000261 ± 0.00011 kPa
[1], 277.57 K, Crystal 1	–	0.000442 ± 0.00011 kPa
[1], 277.59 K, Crystal 1	–	0.000442 ± 0.00011 kPa
[1], 277.6 K, Crystal 1	–	0.00044 ± 0.00011 kPa
[1], 278.16 K, Crystal 1	–	0.00048 ± 0.00011 kPa and 0.000479 ± 0.00011 kPa and 0.000477 ± 0.00011 kPa
[1], 278.28 K, Metastable crystal	–	0.000597 ± 0.00021 kPa and 0.000607 ± 0.00021 kPa
[1], 278.29 K, Metastable crystal	–	0.00061 ± 0.00021 kPa
[1], 282.56 K, Crystal 1	–	0.000853 ± 0.00011 kPa
[1], 282.57 K, Crystal 1	–	0.000852 ± 0.00011 kPa
[1], 282.59 K, Crystal 1	–	0.000854 ± 0.00011 kPa
[1], 283.12 K, Metastable crystal	–	0.00109 ± 0.00021 kPa
[1], 283.13 K, Metastable crystal	–	0.0011 ± 0.00021 kPa and 0.001093 ± 0.00021 kPa
[1], 283.15 K, Crystal 1	–	0.000922 ± 0.00011 kPa
[1], 283.16 K, Crystal 1	–	0.000921 ± 0.00011 kPa and 0.000926 ± 0.00011 kPa
[1], 287.34 K, Crystal 1	–	0.001562 ± 0.00011 kPa
[1], 287.43 K, Crystal 1	–	0.001579 ± 0.00011 kPa
[1], 287.59 K, Crystal 1	–	0.001607 ± 0.00011 kPa
[1], 288.14 K, Metastable crystal	–	0.002021 ± 0.00021 kPa and 0.00201 ± 0.00021 kPa
[1], 288.15 K, Metastable crystal	–	0.00201 ± 0.00021 kPa
[1], 288.16 K, Crystal 1	–	0.001734 ± 0.00011 kPa and 0.001736 ± 0.00011 kPa
[1], 292.79 K, Crystal 1	–	0.003041 ± 0.00012 kPa
[1], 292.84 K, Crystal 1	–	0.003054 ± 0.00012 kPa
[1], 292.9 K, Crystal 1	–	0.003078 ± 0.00012 kPa
[1], 293.14 K, Crystal 1	–	0.003173 ± 0.00012 kPa and 0.00318 ± 0.00012 kPa
[1], 293.14 K, Metastable crystal	–	0.003615 ± 0.00021 kPa and 0.003596 ± 0.00021 kPa and 0.003627 ± 0.00021 kPa
[1], 293.14 K, Metastable liquid	–	0.003971 ± 0.00012 kPa and 0.003966 ± 0.00012 kPa and 0.003969 ± 0.00012 kPa
[1], 293.15 K, Crystal 1	–	0.003183 ± 0.00012 kPa
[1], 293.54 K, Metastable liquid	–	0.00414 ± 0.00012 kPa and 0.004147 ± 0.00012 kPa
[1], 293.55 K, Metastable liquid	–	0.004144 ± 0.00012 kPa
[1], 298.13 K, Metastable liquid	–	0.006551 ± 0.00013 kPa
[1], 298.14 K, Metastable crystal	–	0.00634 ± 0.00022 kPa and 0.006361 ± 0.00022 kPa and 0.006351 ± 0.00022 kPa
[1], 298.14 K, Metastable liquid	–	0.006556 ± 0.00013 kPa and 0.00655 ± 0.00013 kPa
[1], 298.16 K, Crystal 1	–	0.005733 ± 0.00013 kPa [middle of 4 runs]
[1], 298.17 K, Crystal 1	–	0.005739 ± 0.00014 kPa
[1], 298.18 K, Crystal 1	–	0.005738 ± 0.00014 kPa
[1], 298.45 K, Metastable liquid	–	0.006763 ± 0.00016 kPa
[1], 298.46 K, Metastable liquid	–	0.00678 ± 0.00016 kPa
[1], 298.47 K, Metastable liquid	–	0.006777 ± 0.00016 kPa
[1], 303.13 K, Metastable liquid	–	0.01059 ± 0.00016 kPa
[1], 303.14 K, Crystal 1	–	0.01009 ± 0.00015 kPa and 0.0101 ± 0.00015 kPa
[1], 303.14 K, Metastable liquid	–	0.0106 ± 0.00016 kPa
[1], 303.15 K, Crystal 1	–	0.0101 ± 0.00015 kPa
[1], 303.17 K, Crystal 1	–	0.01013 ± 0.00023 kPa
[1], 303.19 K, Crystal 1	–	0.01017 ± 0.00023 kPa
[1], 303.2 K, Crystal 1	–	0.01019 ± 0.00023 kPa
[1], 303.42 K, Metastable liquid	–	0.01089 ± 0.00025 kPa and 0.01091 ± 0.00025 kPa
[1], 303.43 K, Metastable liquid	–	0.01091 ± 0.00025 kPa
[1], 308.14 K, Liquid	–	0.01683 ± 0.00023 kPa and 0.01682 ± 0.00023 kPa and 0.01681 ± 0.00023 kPa
[1], 308.42 K, Liquid	–	0.01728 ± 0.00038 kPa
[1], 308.43 K, Liquid	–	0.01728 ± 0.00038 kPa and 0.01729 ± 0.00038 kPa
[1], 313.42 K, Liquid	–	0.0268 ± 0.00058 kPa
[1], 313.43 K, Liquid	–	0.02682 ± 0.00058 kPa
[1], 313.44 K, Liquid	–	0.02686 ± 0.00058 kPa
[1], 318.39 K, Liquid	–	0.04089 ± 0.00088 kPa
[1], 318.4 K, Liquid	–	0.04092 ± 0.00088 kPa
[1], 318.42 K, Liquid	–	0.041 ± 0.00089 kPa
[1], 323.41 K, Liquid	–	0.06149 ± 0.0013 kPa and 0.06146 ± 0.0013 kPa
[1], 328.43 K, Liquid	–	0.09086 ± 0.0019 kPa
[1], 333.43 K, Liquid	–	0.1322 ± 0.0028 kPa
[1], 333.44 K, Liquid	–	0.1323 ± 0.0028 kPa
[1], 338.35 K, Liquid	–	0.188 ± 0.004 kPa
[1], 338.36 K, Liquid	–	0.188 ± 0.004 kPa
[1], 343.2 K, Liquid	–	0.2626 ± 0.0056 kPa
[1], 343.21 K, Liquid	–	0.2628 ± 0.0056 kPa
[1], 348.1 K, Liquid	–	0.3638 ± 0.0077 kPa
[1], 348.11 K, Liquid	–	0.3638 ± 0.0077 kPa
[1], 353.03 K, Liquid	–	0.4979 ± 0.011 kPa
[1], 362.97 K, Liquid	–	0.9031 ± 0.019 kPa
[3], 265 K, Crystal 1	217.6 ± 8.4	–
[3], 270 K, Crystal 1	221.3 ± 8.6	–
[3], 270 K, Metastable crystal	217.5 ± 8.4	–
[3], 275 K, Crystal 1	225.3 ± 8.7	–
[3], 275 K, Metastable crystal	219.5 ± 8.5	–
[3], 280 K, Crystal 1	229.5 ± 8.9	–
[3], 280 K, Metastable crystal	223.1 ± 8.6	–
[3], 285 K, Crystal 1	234.2 ± 9.1	–
[3], 285 K, Metastable crystal	229 ± 8.9	–
[3], 315.4 K, Liquid	377.3 ± 15	–
[3], 320 K, Liquid	384.2 ± 15	–
[3], 325 K, Liquid	392 ± 15	–
[3], 330 K, Liquid	399.8 ± 16	–
[3], 335 K, Liquid	406.9 ± 16	–
[3], 340 K, Liquid	412.7 ± 16	–
[3], 345 K, Liquid	418.1 ± 16	–
[3], 350 K, Liquid	423.7 ± 16	–
[3], 355 K, Liquid	429 ± 17	–

Conditions	Molar enthalpy of transition or fusion, [2] [kcal/mol]	Triple point temperature, [1] [K]
Crystal 1	3.27 ± 0.0956	305.7 ± 0.8
Metastable crystal	2.37 ± 0.12	300.7 ± 0.8
